{
  "source": "patent US20100048403A1",
  "about": "“Method of inducing virus tolerance of plants” (BASF SE, priority 2007, published 2010)",
  "tested_on": "Cucumber Green Mottle Mosaic Virus (CGMMV)",
  "assay": "Symptom expression of CGMMV in cucumbers treated 7 days before mechanical inoculation",
  "type": "in vivo",
  "conditions": "cucumber plants, 500 g product in 200 litres water sprayed to run-off 7 days before inoculation",
  "description": "The experiment tested the effect of boscalid (as Filan®) on the symptom expression of CGMMV in cucumbers. Cucumber plants were treated with Filan or water 7 days before mechanical inoculation with CGMMV. Filan® was applied at 500 g in 200 litres water. Sprays were applied as a fine spray to run-off.\nThe experiment consisted of 5 plants per each treatment, with three replicates arranged randomly after fungicide treatment, but before inoculation. Plants were then inoculated in situ. Plants were mechanically inoculated at the 4-6 true leaf stage. Cucumber leaves showing symptoms and confirmed by CSL as infected with CGMMV were used as the source of inoculum. Several infected leaves were crushed in a plastic bag with a small amount of distilled water to extract the sap. This sap was then gently rubbed onto the second lowest green leaf of each plant in the experiment. Symptoms of CGMMV were assessed at intervals following inoculation.",
  "data": [
    {"compound": "O=C(Nc1ccccc1-c1ccc(Cl)cc1)c1cccnc1Cl", "note": "[Boscalid, boscalid]", "values": [
      {"measurement": "Number of leaves with symtoms, 8 days after inoculation (Average)", "setting": "8 days after inoculation, untreated 2.4", "result": 0.8},
      {"measurement": "Number of leaves with symtoms, 33 days after inoculation (Average)", "setting": "33 days after inoculation, untreated 7.4", "result": 4.4}
    ]}
  ]
}
